Test system: T1, β-glucosidase purified from F. chlamydosporum HML278 (BG FH1 / BG FH2, not told which)
T1 construct: native secreted enzyme from solid-state fermentation; native PAGE recovery and Sephacryl S-200; 93 kDa and 52 kDa (SDS-PAGE), single subunit
Experiment: initial rates, Lineweaver-Burk
Assay type: biochemical, Fusarium chlamydosporum
Conditions: pH 4.8, 30 °C; one value given, not told whether BG FH1 or BG FH2
Text: initial rates, Lineweaver-Burk on β-glucosidase purified from F. chlamydosporum HML278 (BG FH1 / BG FH2, not told which) | By using pNPG as a substrate, it was shown that the Km and Vmax values

Question: How did the Km turn out when `O=[N+]([O-])c1ccc(O[C@@H]2O[C@H](CO)[C@@H](O)[C@H](O)[C@H]2O)cc1` [pNPG] was run?
Answer: 2.76 mg/mL

Source: article PMC7544787, “One-step purification of two novel thermotolerant β-1,4-glucosidases from a newly isolated strain of Fusarium chlamydosporum HML278 and their characterization” (AMB Express, 2020)
